Assay results from patent US8507504B2, “Process for producing bicycloaniline derivatives” (Merck Sharp & Dohme Corp., priority 2008, dated 2013).

Tested on: Human colon cancer cells WiDr
Assay: Tumor growth inhibitory effect, WiDr xenograft in nude rats, combined with gemcitabine
Format: in vivo, F344/N Jcl-rnu nude rats
Settings: summary of Table 1
Method: Pharmacological Test 2 (Tumor Growth Inhibitory Effect)
Human colon cancer cells WiDr (obtained from ATCC) were implanted into the subcutaneous area of the back of F344/N Jcl-rnu nude rats. 12 days after the implantation, 5 mg/kg of gemcitabine (Gemzar, from Eli Lily) was intravenously administered to them; and after 24 hours, a test compound suspended in a solvent (0.5% methyl cellulose) was orally administered thereto. This was repeated once a week for 3 weeks. The tumor volume (0.5×major diameter×(minor diameter)^2) was measured on days 0, 3, 6, 10, 13, 17, 20, 24 and 27 (the first gemcitabine administration is on day 0). The relative tumor volume was calculated, based on the tumor volume on day 0, as 1. The tumor growth rate (% T/C) was obtained according to the formulae mentioned below.
In case where the tumor volume change from day 0 in the test compound administration group is more than 0 (>0): % T/C=(tumor volume change in the test compound group on days 3, 6, 10, 13, 17, 20, 24 and 27/tumor volume change in the control group on days 3, 6, 10, 13, 17, 20, 24 and 27)×100.
In case where the tumor volume change from day 0 in the test compound administration group is less than 0 (<0): % T/C=(tumor volume change in the test compound group on days 3, 6, 10, 13, 17, 20, 24 and 27/tumor volume […] in the test compound group on day 0)×100. […]

Nc1ccn([C@@H]2O[C@H](CO)[C@@H](O)C2(F)F)c(=O)n1 [Gemcitabine, gemcitabine]
tumor growth rate (result in words): reduced the tumor growth rate
